Patent publication US12338256B2, “Aza-tetracyclic oxazepine compounds and uses thereof” (Genentech, Inc., priority 2022, dated 2025)
Like-named read-outs stand apart in the source and are kept apart here.

How the values were obtained:
[1] = target: KRAS G12D (Homo sapiens, UniProt P01116, G12D); assay: KRAS G12D LoEnz Biochemical Assay, BODIPY-GDP Exchange TR-FRET (Example 500); details: read-out: KRas (G12D) GDP HTRF IC50
Method: Example 500: KRAS G12D LoEnz Biochemical Assay, BODIPY-GDP Exchange TR-FRET. Biochemical compound potencies are assessed by evaluating inhibition of SOS1-mediated nucleotide exchange in KRAS G12D. In this assay, the SOS1-promoted exchange of fluorescently-labeled GDP (BOPIDY-GDP) is monitored by time-resolved fluorescence resonance energy transfer (TR-FRET). Compounds solubilized in DMSO are dispensed as concentration series into 384-well white assay plates. A preformed complex of biotin-tagged recombinant human KRAS (0.06 nM mutant G12D) and 0.06 nM terbium-labeled streptavidin (CisBIO) prepared in 10 uL/well assay buffer (20 mM HEPES, pH 7.5, 50 mM NaCl, 10 mM MgCl2, 0.01% Tween-20 and 1 mM dithiothreitol) is added and allowed to incubate for 10-minutes at room temperature. The reaction is initiated with the addition of 5 uL 300 nM recombinant human SOS1 and 300 nM BODIPY-GDP in assay buffer. After a 120-minute incubation, the fluorescence is measured with excitation at 337 nm and emission at 490 and 520 nm. The TR-FRET ratio is determined as the fluorescence at 520 nm divided by the fluorescence at 490 nm multiplied by 10,000. The results are normalized to percent inhibition based on control samples: DMSO (0% inhibition) and control compound at a concentration that inhibits completely (100% inhibition). The normalized TR-FRET results are plotted against compound concentration, and the data are fit to a 4-parameter Hill equation to determine the IC50 values.

[2] = system: AsPC-1 (homozygous mutant KRAS G12D human pancreatic cell line); assay: KRAS 3D-Cell Proliferation Assay, AsPC-1 (Example 503); format: cell-based; details: Homo sapiens, ASPC1, 168 h, AsPC-1 3D culture, 7 days, CellTiter-Glo 3D; read-out: Prolif AsPC-1 3D ATP IC50
Procedure, shortened: (§1)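 3D culture, ultra-low attachment wells; RPMI-1640/10% FBS/2 mM L-glutamine. Overnight settle, then compound series, 0.3% DMSO final, 7 d, 37° C, 5% CO2. Readout: CellTiter-Glo 3D luminescence. % inhibition vs DMSO (0%) and 1 μM staurosporine (100%); IC50 via 4-parameter Hill.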

[3] = system: HPAC (homozygous mutant KRAS G12D human pancreatic cell line); assay: KRAS 3D-Cell Proliferation Assay, HPAC (Example 503); format: cell-based; details: Homo sapiens, HPAC, 168 h, HPAC 3D culture, 7 days, CellTiter-Glo 3D; read-out: Prolif HPAC 3D ATP IC50
Procedure, shortened: as §1

[4] = system: H1975 (KRAS wild type human lung adenocarcinoma cell line); assay: KRAS 3D-Cell Proliferation Assay, H1975 (Example 503); format: cell-based; details: Homo sapiens, NCI-H1975, 168 h, H1975 3D culture, 7 days, CellTiter-Glo 3D; read-out: Prolif H1975 3D ATP IC50
Procedure, shortened: as §1

[5] = system: PC-9 (KRAS wild type human lung adenocarcinoma cell line); assay: KRAS 3D-Cell Proliferation Assay, PC-9 (Example 503); format: cell-based; details: 168 h, PC-9 3D culture, 7 days, CellTiter-Glo 3D, read-out: Prolif PC9 3D ATP IC50
Procedure, shortened: as §1

[6] = target: KRAS WT (Homo sapiens, UniProt P01116); assay: KRAS WI Biochemical Assay, BODIPY-GDP Exchange TR-FRET (Example 501; 3 nM KRAS WT, 3 nM SOS1, 60-minute incubation)
Method: Example 501: KRAS WI Biochemical Assay, BODIPY-GDP Exchange TR-FRET. Biochemical compound potencies are assessed by evaluating inhibition of SOS1-mediated nucleotide exchange in KRAS WT. In this assay, the SOS1-promoted exchange of fluorescently-labeled GDP (BOPIDY-GDP) is monitored by time-resolved fluorescence resonance energy transfer (TR-FRET). Compounds solubilized in DMSO are dispensed as concentration series into 384-well white assay plates, and 5 uL assay buffer (20 mM HEPES, pH 7.5, 50 mM NaCl, 10 mM MgCl2, 0.01% Tween-20 and 1 mM dithiothreitol) is added just prior to the start of the assay. A preformed complex of 3 nM biotin-tagged recombinant human KRAS WT and 0.3 nM terbium-labeled streptavidin (CisBIO) prepared in 5 uL/well assay buffer is added and allowed to incubate for 10-minutes at room temperature. The reaction is initiated with the addition of 5 uL 3 nM recombinant human SOS1 and 300 nM BODIPY-GDP in assay buffer. After a 60-minute incubation, the fluorescence is measured with excitation at 337 nm and emission at 490 and 520 nm. The TR-FRET ratio is determined as the fluorescence at 520 nm divided by the fluorescence at 490 nm multiplied by 10,000. The results are normalized to percent inhibition based on control samples: DMSO (0% inhibition) and control compound at a concentration that inhibits completely (100% inhibition). The normalized TR-FRET results are plotted against compound concentration, and the data are fit to a 4-parameter Hill equation to determine the IC50 values.

[7] = SOS1-mediated BODIPY-GDP exchange TR-FRET
[8] = SOS1-mediated BODIPY-GDP exchange TR-FRET, read-out: KRas HTRF IC50
[9] = SOS1-mediated BODIPY-GDP exchange, read-out: KRas(wt) GDP HTRF IC50

Chain of KRAS WT (P01116 1-188 isoform P01116-2): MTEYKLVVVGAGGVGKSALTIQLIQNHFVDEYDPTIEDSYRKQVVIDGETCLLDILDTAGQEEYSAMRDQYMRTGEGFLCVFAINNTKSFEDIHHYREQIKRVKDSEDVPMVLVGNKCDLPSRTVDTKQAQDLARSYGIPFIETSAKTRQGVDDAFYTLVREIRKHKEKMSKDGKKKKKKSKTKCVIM
Chain of KRAS G12D (P01116 1-188 isoform P01116-2 G12D): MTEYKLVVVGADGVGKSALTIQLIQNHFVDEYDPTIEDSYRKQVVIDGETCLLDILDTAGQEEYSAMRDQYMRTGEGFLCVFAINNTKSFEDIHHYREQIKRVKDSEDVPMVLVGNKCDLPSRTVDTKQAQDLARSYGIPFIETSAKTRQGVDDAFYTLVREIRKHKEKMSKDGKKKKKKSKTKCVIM

| SMILES | IC50 ([1]; BODIPY-GDP exchange) [nM] | IC50 [1, 7] [nM] | IC50 [2] [nM] | IC50 [3] [nM] | IC50 [4] [nM] | IC50 [5] [nM] | IC50 [6, 8] [nM] | IC50 [6, 9] [nM] |
| --- | --- | --- | --- | --- | --- | --- | --- | --- |
| Cc1c(F)c(N)cc(-c2nc3c4c(nc(OC[C@]5(CN6CC7(COC7)C6)CC5(F)F)nc4c2F)N2C[C@H]4CC[C@H](N4)[C@H]2[C@H](C)O3)c1C(F)(F)F (single isomer, unassigned) [165 b] | 0.1 |  |  |  |  |  |  |  |
| Cc1cc(N)c(Cl)c(-c2nc3c4c(nc(OC[C@@]56CCCN5C[C@H](F)C6)nc4c2Cl)N2C[C@H]4CC[C@H](N4)[C@H]2[C@H](C)O3)c1C(F)(F)F (single isomer, unassigned) [240 (atrop. 1)] |  | 44.9 |  |  |  |  |  |  |
| Cc1cc(N)c(Cl)c(-c2nc3c4c(nc(OC[C@@]56CCCN5C[C@H](F)C6)nc4c2Cl)N2C[C@H]4CC[C@H](N4)[C@H]2[C@H](C)O3)c1C(F)(F)F (single isomer, unassigned) [240 (atrop. 2)] |  | 0.14 | 1.5 |  |  |  |  |  |
| C#Cc1cccc2cc(O)cc(-c3nc4c5c(nc(OC[C@]67CCN6CC(F)(F)C7)nc5c3F)N3C[C@H]5CC[C@H](N5)[C@H]3[C@H](C)O4)c12 (single isomer, unassigned) [Compound 19] | 0.08 |  | 5.05 | 3.31 | 217 | 8800 |  |  |
| Cc1cc(N)c(Cl)c(-c2nc3c4c(nc(OC[C@@]56CCCN5C[C@H](F)C6)nc4c2F)N2C[C@H]4CC[C@H](N4)[C@H]2[C@H](C)O3)c1C(F)(F)F (single isomer, unassigned) [Compound 199] |  | 0.17 | 4.06 | 0.98 | 1050 |  | 9.63 |  |
| Cc1c(Cl)c(N)cc(-c2nc3c4c(nc(OC[C@@]56CCCN5C[C@H](F)C6)nc4c2F)N2C[C@H]4CC[C@H](N4)[C@H]2[C@H](C)O3)c1C(F)(F)F (single isomer, unassigned) [Compound 200] |  | 0.1 |  | 6.83 | 593 |  | 6.7 |  |
| Fc1c(-c2cccc3cccc(Cl)c23)nc2c3c(ncnc13)N1C[C@H]3CC[C@H](N3)[C@H]1CO2 [Compound 53, (5aS,6S,9R)-2-(8-Chloronaphthalen-1-yl)-1-fluoro-5a,6,7,8,9,10-hexahydro-5H-4-oxa-3,10a,11,13,14-pentaaza-6,9-methanonaphtho[1,8-ab]heptalene] |  |  |  |  |  |  |  | ≥ 200000 |
| Nc1nc2c(-c3nc4c5c(ncnc5c3F)N3C[C@H]5CC[C@H](N5)[C@H]3CO4)ccc(F)c2s1 [Compound 55, 7-fluoro-4-((5aS,6S,9R)-1-fluoro-5a,6,7,8,9,10-hexahydro-5H-4-oxa-3,10a,11,13,14-pentaaza-6,9-methanonaphtho[1,8-ab]heptalen-2-yl)benzo[d]thiazol-2-amine] |  |  | ≥ 20000 |  |  | 12800 |  | ≥ 200000 |
| C[C@@H]1Oc2nc(-c3cc(N)nc4ccccc34)c(F)c3nc(OC[C@]45CCN4CC(F)(F)C5)nc(c23)N2C[C@H]3CC[C@H](N3)[C@@H]12 [Compound 79, 4-((5S,5aS,6S,9R)-12-(((R)-3,3-Difluoro-1-azabicyclo[3.2.0]heptan-5-yl)methoxy)-1-fluoro-5-methyl-5a,6,7,8,9,10-hexahydro-5H-4-oxa-3,10a,11,13,14-pentaaza-6,9-methanonaphtho[1,8-ab]heptalen-2-yl)quinolin-2-amine] | 22.7 |  | 4040 |  |  | ≥ 20000 |  |  |
| C#Cc1c(F)ccc2cc(O)cc(-c3nc4c5c(nc(OC[C@@]67CCCN6C[C@H](F)C7)nc5c3F)N3C[C@H]5CC[C@H](N5)[C@H]3CO4)c12 [Compound 81, 5-Ethynyl-6-fluoro-4-((5aS,6S,9R)-1-fluoro-12-(((2R,7aS)-2-fluorotetrahydro-1H-pyrrolizin-7a(5H)-yl)methoxy)-5a,6,7,8,9,10-hexahydro-5H-4-oxa-3,10a,11,13,14-pentaaza-6,9-methanonaphtho[1,8-ab]heptalen-2-yl)naphthalen-2-ol] |  |  | 14.7 | 12.4 | 4780 | ≥ 20000 |  |  |
| C[C@@H]1Oc2nc(-c3nc(N)c(F)cc3C(F)(F)F)c(F)c3nc(OC[C@@]45CCCN4CC4(CC4(F)F)C5)nc(c23)N2C[C@H]3CC[C@H](N3)[C@@H]12 (stereo partly drawn) [Compound 86, 6-((5S,5aS,6S,9R)-12-(((7a′S)-2,2-difluorodihydro-1′H,3′H-spiro[cyclopropane-1,2′-pyrrolizin]-7a′(5′H)-yl)methoxy)-1-fluoro-5-methyl-5a,6,7,8,9,10-hexahydro-5H-4-oxa-3,10a,11,13,14-pentaaza[6,9]methanonaphtho[1,8-ab]heptalen-2-yl)-3-fluoro-5-(trifluoromethyl)pyridin-2-amine] |  |  | 144 | 126 | 5430 | 8750 |  |  |
| C[C@@H]1Oc2nc(-c3nc(N)c(F)cc3C(F)(F)F)c(F)c3nc(OC[C@]45CCN4CC(F)(F)C5)nc(c23)N2C[C@H]3CC[C@H](N3)[C@@H]12 [Compound 87, 6-((5S,5aS,6S,9R)-12-(((R)-3,3-Difluoro-1-azabicyclo[3.2.0]heptan-5-yl)methoxy)-1-fluoro-5-methyl-5a,6,7,8,9,10-hexahydro-5H-4-oxa-3,10a,11,13,14-pentaaza-6,9-methanonaphtho[1,8-ab]heptalen-2-yl)-3-fluoro-5-(trifluoromethyl)pyridin-2-amine] |  |  | 4030 | 1400 | 20000 | ≥ 20000 |  |  |
| Cc1c(F)c(N)cc(-c2nc3c4c(nc(OC[C@@]56CCCN5C[C@H](F)C6)nc4c2F)N2C[C@H]4CC[C@H](N4)[C@H]2[C@@H](C(F)(F)F)O3)c1C(F)(F)F [Compound 246, 2-Fluoro-5-((5S,5aS,6S,9R)-1-fluoro-12-(((2R,7aS)-2-fluorotetrahydro-1H-pyrrolizin-7a(5H)-yl)methoxy)-5-(trifluoromethyl)-5a,6,7,8,9,10-hexahydro-5H-4-oxa-3,10a,11,13,14-pentaaza-6,9-methanonaphtho[1,8-ab]heptalene-2-yl)-3-methyl-4-(trifluoromethyl)aniline] |  | 311 |  | 2000 | 20000 |  |  |  |
| Cc1nc(N)cc(-c2nc3c4c(nc(OCC5(CN6CC7COCC(C6)C7(F)F)CC5)nc4c2F)N2C[C@H]4CC[C@H](N4)[C@H]2[C@H](C)O3)c1C(F)(F)F [Compound 266, 4-((5S,5aS,6S,9R)-12-((1-((9,9-difluoro-3-oxa-7-azabicyclo[3.3.1]nonan-7-yl)methyl)cyclopropyl)methoxy)-1-fluoro-5-methyl-5a,6,7,8,9,10-hexahydro-5H-4-oxa-3,10a,11,13,14-pentaaza-6,9-methanonaphtho[1,8-ab]heptalene-2-yl)-6-methyl-5-(trifluoromethyl)pyridin-2-amine] |  | 3.05 |  |  |  |  |  |  |
